Entries after “also recorded” stand apart in the source; their conditions may differ. Blank lines part the entries; values can stand above or below the compound they belong to.
What was measured:
mitoNEET [1] = molecular target: T1, mitoNEET (Homo sapiens, UniProt Q9NZ45); experiment: Thermal shift analysis (SYPRO Orange) of mitoNEET; type: binding; conditions: changing concentrations of nucleotide
T1 sequence (Q9NZ45 33-108 limits assumed): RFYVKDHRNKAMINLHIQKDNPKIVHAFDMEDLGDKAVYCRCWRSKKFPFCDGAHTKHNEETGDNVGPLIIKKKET

mitoNEET [2] = molecular target: T1, mitoNEET; experiment: Competitive spectrophotometric assay of mitoNEET⋅PLP complex formation; type: biochemical; conditions: for Effect on mitoNEET⋅PLP complex formation: signal at λ=380 nm (unbound PLP) with increasing compound concentration
PLP⋅mitoNEET complex = molecular target: T2, PLP⋅mitoNEET complex (Homo sapiens, UniProt Q9NZ45); experiment: Reaction of candidate amino acid substrates with the PLP⋅mitoNEET complex, followed by spectrophotometry; type: biochemical; conditions: internal aldimine at λ=410 nm, signal at λ=330 nm, over 5000 sec
T2 sequence (Q9NZ45 33-108 limits assumed): T1 sequence (Q9NZ45 33-108 limits assumed)
Source text: After PLP binding to the protein, the next step in many PLP-catalyzed enzymatic reactions is the formation of an external aldimine with one of several amino acid substrate such as cysteine, serine, alanine, or aspartate. Subsequently, an amazing diversity of chemistry can occur using this versatile coenzyme including transamination, racemization, and α,β-elimination. L-cysteine was selected as a first candidate substrate considering the previously shown reactivity of mitoNEET cysteine residues in the formation of mixed disulfide bonds. L-cysteine (0.5 mM) was added to the PLP⋅mitoNEET complex and the reaction was followed by spectrophotometry over 5000 sec.

mitoNEET [3] = molecular target: T3, mitoNEET (Homo sapiens, UniProt Q9NZ45); experiment: Proteomic analysis of mitoNEET lysine residues modified by PLP; type: biochemical; conditions: 2.0 molar equivalents of PLP, 20 minutes, PBS pH 7.5
T3 construct: Considering the presence of ten lysine residues in the soluble portion of mitoNEET
T3 sequence (Q9NZ45 32-108 limits assumed): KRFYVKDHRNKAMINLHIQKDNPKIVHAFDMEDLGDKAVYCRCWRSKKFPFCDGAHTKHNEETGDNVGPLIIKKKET
Experimental: Considering the presence of ten lysine residues in the soluble portion of mitoNEET, non-specific binding of PLP was a concern (PDB code 3EW0). Therefore, mitoNEET was treated with 2.0 molar equivalents of PLP over 20 minutes in phosphate buffered saline (PBS) at pH 7.5 and the reacted protein was analyzed by proteomics. […] Next, the product(s) were degraded by tryptic digest, separated by liquid chromatography, analyzed by tandem mass spectrometry, and the data deconvoluted by proteomic analysis (courtesy of Indiana University Medical School Proteomics Core).

mitoNEET [4] = molecular target: T1, mitoNEET; experiment: Spectroscopic kinetics of modification of mitoNEET by PLP; type: biochemical; conditions: in contrast to PLP; data not shown
Source text: The initial discovery was made that CISD proteins bind PLP at a specific lysine residue that is in close proximity to the [2Fe-2S] cluster. PLP modifies the active site lysine residue of PLP-dependent enzymes forming the internal aldimine. In mitoNEET, PLP selectively modifies Lys55. While Lys55 was hypothesized to play a role in the reduction potential and stability of the [2Fe-2S] cluster in mitoNEET, its role as the binding site of PLP is novel to this work. MitoNEET was previously not known or classified as a PLP-dependent enzyme. Referring to FIG. 2, the formation of the mitoNEET⋅PLP and NAF-1⋅PLP complexes can be followed spectroscopically by the accumulation of a signal at λ=435 nm which is consistent with the ketoenamine tautomer and the attenuation of the signal at λ=380 nm which signifies the free PLP molecule. Concurrently with the increase of signal at λ=435 nm, an increase at λ=280 nm is also observed, but the chemical species contributing to this signal is currently unknown. In contrast to PLP, no reactivity of mitoNEET towards the non-phosphorylated pyridoxal (data not shown) was observed. […] An analogous lysine (Lys78) on NAF-1 is the analogous site for that protein.

SMILES: Nc1ncnc2c1ncn2[C@@H]1O[C@H](COP(=O)(O)OP(=O)(O)O)[C@@H](O)[C@H]1O [ADP, adenosine diphosphate]
Effect on mitoNEET thermal stability (mitoNEET [1]): do not significantly affect the thermal shift profile

SMILES: Nc1ncnc2c1ncn2[C@@H]1O[C@H](COP(=O)(O)O)[C@@H](O)[C@H]1O [AMP, adenosine monophosphate]
Effect on mitoNEET⋅PLP complex formation (mitoNEET [2]): no binding at Lys55; also recorded: does not correspond with an increase in the signal at λ=380 nm
Effect on mitoNEET thermal stability (mitoNEET [1]): do not significantly affect the thermal shift profile

SMILES: N[C@H](CS)C(=O)O [D-cysteine]
Reaction with the PLP⋅mitoNEET complex (PLP⋅mitoNEET complex): also reacts with the PLP⋅mitoNEET complex (albeit at a slower rate)

SMILES: N[C@@H](CS)C(=O)O [L-cysteine]
Reaction with the PLP⋅mitoNEET complex (PLP⋅mitoNEET complex): degradation of the internal aldimine

SMILES: NS(=O)(=O)c1cc(C(=O)O)c(NCc2ccco2)cc1Cl [furosemide]
Formation of mitoNEET⋅PLP complex after pre-treatment (mitoNEET [2]; signal at 435 nm, pre-treatment with compound): lack of formation of mitoNEET⋅PLP complex
Effect on mitoNEET⋅PLP complex formation (mitoNEET [2]): competitive binding; also recorded: prohibits the mitoNEET⋅PLP complex formation
Effect on mitoNEET⋅PLP complex formation (mitoNEET [2]; listed as Furosemide): block the formation of the mitoNEET⋅PLP complex in a concentration dependent manner

Results, then the compound that gave them:

Reaction with the PLP⋅mitoNEET complex (PLP⋅mitoNEET complex): did not react
SMILES: N[C@@H](COP(=O)(O)O)C(=O)O [L-phosphoserine]

Reaction with the PLP⋅mitoNEET complex (PLP⋅mitoNEET complex): did not react
SMILES: N[C@@H](CO)C(=O)O [L-serine]

Percent Modified, lysine residue position 55 (mitoNEET [3]): 48.1%
Percent Modified, lysine residue position 68 (mitoNEET [3]): 7.6%
Percent Modified, lysine residue position 79 (mitoNEET [3]): 6.1%
Percent Modified, lysine residue position 89 (mitoNEET [3]): 2.5%
Percent Modified, lysine residue position 104 (mitoNEET [3]): 1.5%
SMILES: Cc1ncc(COP(=O)(O)O)c(C=O)c1O [PLP, pyridoxal-5′-phosphate]

Reactivity of mitoNEET towards compound (mitoNEET [4]): no reactivity
SMILES: Cc1ncc(CO)c(C=O)c1O [pyridoxal]

Source: patent US20190388381A1, “METHODS OF INHIBITING CISD PROTEIN-PLP COMPLEX FORMATION” (priority 2018, published 2019)
